Holding throughout (test): NCI anticancer screen, dose series, 48 h
Test [1] has as its system 786-0 renal.
Test [2] has as its system A498 renal.
Test [3] relates to CAKI-1 renal.
Test [4] relates to COLO 205 colon.
Test [5] has as its system HOP-92 NSCLC.
Test [6] relates to IGROV1 ovarian.
In test [7] the test system is MCF7 breast.
Test [8] deals with MDA-N.
Test [9] concerns NCI-H226 lung.
For test [10], the system named is NCI-H23 lung.
Test [11] relates to NCI/ADR-RES ovarian.
Test [12] has as its system OVCAR-4 ovarian.
The test system of test [13] is PC-3 prostate.
In test [14] the test system is RPMI-8226 leukemia.
The subject of test [15] is SK-MEL-28 melanoma.
The subject of test [16] is SNB-19 CNS.

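Exposure lasted 48 hours, with cells grown in 96-well plates and compounds tested at five concentrations. TGI denotes the concentration required for complete inhibition of growth.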

For the compound `CC(=O)Nc1c(S(=O)(=O)c2ccccc2)c(C)c(C)n1CCN(C)C`, the TGI in [1], in [2], in [3], in test [4], in test [5] and in test [6] was greater than 100 µM each time. Besides, the TGI in test [7], in [8], in test [9], in [10], in test [11] and in test [12] was greater than 100 µM throughout. The TGI in test [13], in [14], in test [15] and in [16] was greater than 100 µM each time.
Consider `COC(=O)C(N)CCCC(N)C(=O)NC(C)C(=O)NC(CCC(=O)NCCNCCNc1c2ccccc2nc2cccc([N+](=O)[O-])c12)C(N)=O` (stereo not drawn), for which the TGI in [1] is greater than 31 µM; in test [2] it was 40.3 µM; in [3], greater than 100 µM; in test [4] it was 20.4 µM; in test [5], 23.8 µM; in test [6], greater than 100 µM. For the same compound, the TGI in test [7] was 58.5 µM; in test [8] it was 28.1 µM; in test [9], 39.4 µM; in test [10] it was 9.91 µM; in [11], greater than 100 µM; in test [12], 8.05 µM. The TGI in test [13] was 29.5 µM; in [14], 34.6 µM; in [15], 31.1 µM; in test [16] it was greater than 67.7 µM.
For the compound `Cc1cc(C)n(CC(Cn2nc(C)cc2C)=C(/C(Cl)=C(/Cl)Nc2ccc([N+](=O)[O-])cc2)[N+](=O)[O-])n1`, the TGI is 18.9 µM in [1]; 11.2 µM in [2]; 5.98 µM in test [3]; 5.36 µM in test [4]; 8.48 µM in test [5]; 8.17 µM in [6]. In addition, the TGI is 14.3 µM in test [7]; 15.3 µM in test [8]; 49.4 µM in test [9]; 8.03 µM in [10]; greater than 32.8 µM in [11]; 3.4 µM in test [12]. Besides, the TGI amounted to 12.7 µM in test [13], 5.12 µM in [14], 29 µM in test [15] and 17.6 µM in test [16].
Regarding `O=C1CSC(/C=C/c2ccccc2)N1c1nc2cc3sc(N4C(=O)CSC4/C=C/c4ccccc4)nc3cc2s1` (stereo not drawn), the TGI in test [1] is greater than 100 µM; in test [2], greater than 100 µM; in [3], greater than 100 µM; in [4], greater than 29.8 µM; in test [5], greater than 100 µM; in [6] it was greater than 100 µM. The TGI was greater than 100 µM in test [7]; greater than 100 µM in [8]; greater than 95.5 µM in test [9]; greater than 100 µM in test [10]; greater than 100 µM in test [11]; greater than 100 µM in test [12]. Also, the TGI in test [13], in test [14], in test [15] and in test [16] was greater than 100 µM in each case.
For `COC(=O)/C(C#N)=C(\Nc1ccccc1)N1CCOCC1`, the TGI in [1], in test [2], in [3], in [4], in [5] and in [6] was greater than 100 µM in each case. The TGI in [7], in [8], in test [9], in test [10], in test [11] and in [12] was greater than 100 µM in each case. The TGI in test [13], in test [14], in test [15] and in test [16] was greater than 100 µM in each case.
Consider `CC1=CC(=O)CC(C)(C)C1/C=C/C(C)=C/C=C/C(C)=C/C=C/C=C(C)/C=C/C=C(C)/C=C/C1C(C)=CC(=O)CC1(C)C` (stereo not drawn), for which the TGI was greater than 100 µM in test [1]; greater than 100 µM in [2]; greater than 100 µM in test [3]; 62.8 µM in [5]; greater than 100 µM in test [6]; greater than 100 µM in [7]. The TGI in test [8], in test [9], in test [10], in test [11], in test [12] and in [13] was greater than 100 µM throughout. In addition, the TGI in test [14] and in [15] was greater than 100 µM in each case.
Regarding `Oc1ccc(O)c(CNc2ccc(C(O)C(F)(F)F)cc2)c1` (stereo not drawn), the TGI is 29 µM in test [1]; greater than 100 µM in test [2]; 29.7 µM in [3]; 37.8 µM in test [4]; 27.7 µM in test [5]; 30.1 µM in test [6]. The TGI is 69.2 µM in test [7]; 25.9 µM in test [8]; 84.1 µM in test [9]; 56.9 µM in test [10]; greater than 100 µM in test [11]; 30.3 µM in test [12]. Besides, the values for the TGI in test [13], in test [15] and in test [16] were greater than 100 µM, 77.3 µM and greater than 100 µM, respectively.
`CC(NC(=O)/C(=C/c1ccccc1)NC(=O)c1ccccc1)C(=O)O` (stereo not drawn): the TGI in [1], in test [2], in test [3], in test [4], in [5] and in test [6] was greater than 100 µM throughout. Besides, the TGI in test [7] is greater than 100 µM; in test [8] it was greater than 100 µM; in [9] it was 99.5 µM; in test [10], greater than 100 µM; in [11] it was greater than 100 µM; in [13], greater than 100 µM. Besides, the TGI in [14], in test [15] and in [16] was greater than 100 µM in each case.
`O=c1[nH]c(=O)n(COCc2ccccc2)c2ccsc12`: the TGI in [1], in [2], in test [3], in test [4], in test [5] and in [6] was greater than 100 µM each time. The TGI in [7], in test [8], in [9], in test [11], in [12] and in [13] was greater than 100 µM each time. For the same compound, the TGI in test [14], in test [15] and in [16] was greater than 100 µM throughout.
`O=c1ccn(CC2(CO)CCC2)c(=O)[nH]1`: the TGI in test [1], in test [2], in test [3], in test [4], in test [5] and in test [6] was greater than 100 µM throughout. Besides, the TGI in test [7], in test [8], in test [9], in test [10], in test [11] and in [12] was greater than 100 µM in each case. Besides, the TGI in [13], in [14] and in [15] was greater than 100 µM in each case.
For `O=C(O)CCCC(=O)Nn1c(Cc2ccc(Cl)cc2)n[nH]c1=O`, the TGI in test [1], in [2], in test [3], in [4], in test [5] and in test [6] was greater than 100 µM in each case. The TGI in test [7], in test [8], in [9], in test [10], in test [11] and in test [12] was greater than 100 µM in each case. The TGI in [13], in test [14] and in test [15] was greater than 100 µM in each case.
Regarding `N#Cc1cc(C#N)c(N)nc1N`, the TGI in test [1], in test [2], in [3], in [4], in test [5] and in test [6] was greater than 100 µM in each case. The TGI in test [7], in test [8], in test [9], in test [10], in test [11] and in [12] was greater than 100 µM throughout. The TGI in test [13], in test [14] and in [16] was greater than 100 µM in each case.
Consider `O=C(CC(=O)N1N=C(N2CCCCC2)CC1c1ccccc1)Nc1ccccc1` (stereo not drawn), for which the TGI in test [1], in [2], in [3], in test [4], in test [5] and in test [6] was greater than 100 µM throughout. Also, the TGI in test [7], in test [8], in [9], in test [10], in test [11] and in test [12] was greater than 100 µM each time. Besides, the TGI in test [13], in test [15] and in [16] was greater than 100 µM each time.
As for `CC(C)=CCC[C@]1(C)C=Cc2c(O)c3c(c(CC=C(C)C)c2O1)O[C@]12C(=C[C@@H]4CC1C(C)(C)O[C@@]2(C/C=C(/C)C(=O)O)C4=O)C3=O`, the TGI worked out at 2.4 µM in [1]; 3.98 µM in test [2]; 3.66 µM in test [3]; 9.16 µM in [5]; 2.81 µM in test [6]; 1.42 µM in [7]. Moreover, the TGI in [8] amounted to 4.59 µM; in test [9], 3.93 µM; in test [10] it was 3.24 µM; in test [11] it was 6.96 µM; in test [12], 13.6 µM; in test [13], 2.23 µM. Also, the TGI in test [14] is 1.61 µM; in test [15] it was 3.26 µM; in [16], 7.36 µM.
In the case of `CCOC(=O)c1nc2ccc(C(F)(F)F)cc2nc1NCc1ccc(OC)cc1`, the TGI in test [1], in [2], in test [3], in test [4], in test [5] and in [6] was greater than 100 µM in each case. In addition, the TGI in test [7], in [8], in [9], in test [10], in test [11] and in test [12] was greater than 100 µM throughout. The TGI in [13], in [14] and in [16] was greater than 100 µM in each case.
In the case of `COc1ccc(N=N/C(=N/NC(=O)c2ccc(C)cc2)c2ccc(N(CCC#N)CCC#N)cc2OC)cc1`, the TGI in test [1], in test [2], in test [3], in [4], in test [5] and in [6] was greater than 100 µM in each case. The TGI in test [7], in test [8], in [9], in [10], in test [11] and in [12] was greater than 100 µM each time. Further, the TGI in test [13], in test [15] and in test [16] was greater than 100 µM throughout.
With `CC(=O)O[C@H]1C(=O)[C@@]2(C)[C@H]([C@H](OC(=O)c3cccc([N+](=O)[O-])c3)[C@]3(O)C[C@H](OC(=O)[C@H](O)[C@@H](NC(=O)c4ccccc4)c4ccccc4)C(C)=C1C3(C)C)[C@]1(OC(C)=O)CO[C@@H]1C[C@@H]2O`, the TGI in [1] is greater than 25 µM; in test [2] it was 18.5 µM; in [3], greater than 25 µM; in test [5], greater than 25 µM; in [6], greater than 25 µM; in [7], greater than 17.1 µM. In addition, the TGI was 0.0115 µM in [8]; greater than 25 µM in [9]; greater than 25 µM in test [11]; greater than 25 µM in [12]; greater than 25 µM in test [13]; 18.1 µM in [14]. The TGI in test [15] and in test [16] was greater than 25 µM throughout.

For the origin of these results see PubChem BioAssay (NCI).
